Data taken from patent US5681826A, “Saccharide composition with reduced reducibility, and preparation and uses thereof” (Kabushiki Kaisha Hayashibara Seibutsu Kagaku Kenkyujo, priority 1994, dated 1997).
Values belong to the compound of their own block, whether it stands above or below them.

How the values were obtained:
[1] = test system: non-reducing saccharide-forming enzyme; type: biochemical, Rhizobium sp. M-11; conditions: for Percentage of remaining substrate on HPLC: non-reducing saccharide-forming enzyme, 48 h, pH 7; for Percentage of newly formed product (P I to P V) on HPLC: 20 w/v % substrate, 2 units/g, 40°C., pH 7.0, 48 hours, label = substrate
Procedure: An aqueous solution containing 20 w/v % glucose, maltose, maltotriose, maltotetraose, maltopentaose, maltohexaose or maltoheptaose as a substrate was prepared, and mixed with 2 units/g substrate, d.s.b., of the purified enzyme preparation obtained in Experiment 2, and the resultant mixture was subjected to an enzymatic reaction at 40° C. and pH 7.0 for 48 hours. The reaction mixture was desalted and analyzed on high-performance liquid chromatography (HPLC) using "WAKOBEADS WB-T-330 COLUMN", a product of Wako Pure Chemical Industries Ltd., Tokyo, Japan. The HPLC procedure was conducted at ambient temperature and a flow rate of 0.5 ml/min of water as an eluent, and "RI-8012", a differential refractometer commercialized by Tosho Corporation, Tokyo, Japan, was used for analyzing reaction products.

[2] = Maillard reaction with glycine, absorbance at 480 nm; type: physicochemical; conditions: for Coloration degree (480 nm): one % glycine, 10% saccharide, pH 7.0, 100°C., 90 min, 1-cm cell
Procedure: A solution, containing one % glycine and 10% of a saccharide preparation PI, P II, P III, P IV or P V in Experiment 4 and 50 mM phosphate buffer (pH 7.0), was kept at 100° C. for 90 min, followed by cooling the resultant solution, and determining for absorbance at a wave length of 480 nm in a 1-cm cell. As a control, maltotriose, maltotetraose, maltopentaose, maltohexaose and maltoheptaose, as a material for the saccharide preparations, were similarly treated as above, and measured for absorbance at a wave length of 480 nm.
A solution, containing one % of glycine, 10% of a high-purity trehalose preparation with a purity of 99.5%, d.s.b., obtained by the method in Experiment 17, and 50 mM phosphate buffer (pH 7.0), was kept at 100° C. for 90 min, followed by cooling the resultant solution and determining the absorbance at a wave length of 480 nm in a 1-cm cell. As a control, glucose and maltose were similarly treated as above, and the resultants were determined for absorbance at a wave length of 480 nm.

β-amylase = experiment: Hydrolysis by β-amylase; type: biochemical
α-glucosidase = experiment: Hydrolysis by α-glucosidase derived from rice; type: biochemical; conditions: pH 4.0, 37°C., 18 hours
Procedure: (§1) The enzymatic reaction with the α-amylase was as follows: Dissolve 10 mg of a substrate in one ml of 50 mM phosphate buffer (pH 6.9), mix the resultant solution with one unit of the α-amylase, and incubate the resultant mixture at 37° C. for 18 hours. The enzymatic reaction with the α-glucosidase was conducted under the same conditions as in the case of α-amylase except that 50 mM acetate buffer (pH 4.0) was used as a buffer. The enzymatic reaction using the rat intestinal acetone powder was carried out under the same conditions as in the case of α-amylase except that 50 mM maleate buffer (pH 6.0) was used as a buffer. The saccharide compositions obtained by the α-amylase, α-glucosidase and rat intestinal acetone powder are respectively in Tables 6, 7 and 8.

[3] = Reducing power on the Somogyi-Nelson's method expressed by DE; type: physicochemical; conditions: d.s.b.
Procedure: The reducing powders of these novel high-purity saccharides were determined on the Somogyi-Nelson's method and expressed by DE.

[4] = Acute toxicity test (Experiment 8); conditions: mouse, in vivo, po
Description: (§2) By using 7-week old dd-strain mice, the non-reducing saccharide preparation P I, P II, P III, P IV or P V was orally administered to the mice for acute toxicity test.

mice = experiment: Acute toxicity test (Experiment 8); conditions: oral, highest possible doses
Description: as §2

[5] = Hydrolysis by rat intestinal acetone powder; type: in vitro ADME; conditions: pH 6.0, 37°C., 18 hours
Procedure: as §1

α-amylase = experiment: Hydrolysis by α-amylase derived from pig pancreas; type: in vitro ADME
Procedure: as §1

[6] = molecular target: T1, trehalose-releasing enzyme (Rhizobium sp. M-11, UniProt Q53238); experiment: Action of trehalose-releasing enzyme on α-glycosyltrehalose and maltooligosaccharides (Table 13); type: biochemical; conditions: 20% substrate, 2 units/g, 40°C., pH 7.0, 48 hours; label = substrate
T1 construct: M-11 culture
T1 sequence (Q53238 1-596): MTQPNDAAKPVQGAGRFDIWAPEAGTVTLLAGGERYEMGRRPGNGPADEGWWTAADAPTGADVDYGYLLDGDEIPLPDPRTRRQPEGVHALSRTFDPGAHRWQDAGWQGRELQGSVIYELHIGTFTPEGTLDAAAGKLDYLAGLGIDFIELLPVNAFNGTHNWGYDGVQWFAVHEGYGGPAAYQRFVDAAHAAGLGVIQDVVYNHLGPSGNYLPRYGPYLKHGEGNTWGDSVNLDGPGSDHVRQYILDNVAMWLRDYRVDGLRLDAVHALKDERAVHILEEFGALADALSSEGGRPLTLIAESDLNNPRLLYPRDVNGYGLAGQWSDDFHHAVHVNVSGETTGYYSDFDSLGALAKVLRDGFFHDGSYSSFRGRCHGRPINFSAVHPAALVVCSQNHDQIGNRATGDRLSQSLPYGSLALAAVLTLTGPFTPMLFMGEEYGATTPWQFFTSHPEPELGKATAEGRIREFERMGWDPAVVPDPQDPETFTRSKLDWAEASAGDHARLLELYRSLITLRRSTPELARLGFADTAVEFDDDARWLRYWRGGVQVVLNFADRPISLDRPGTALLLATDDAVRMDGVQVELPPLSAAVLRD
Procedure: An aqueous solution containing 20%, d.s.b., of one of the above 5 non-reducing saccharide preparations, namely α-glycosyltrehalose preparations, was prepared, followed by mixing it with 2 units/g substrate, d.s.b., of the purified trehalose-releasing enzyme obtained in Experiment 15, and subjecting the resultant to an enzymatic reaction at 40° C. and pH 7.0 for 48 hours. The resultant each reaction mixture was desalted, and analyzed for saccharide composition on HPLC using "WAKOBEADS WB-T-330 column", a column of Wako Pure Chemical Industries Ltd., Tokyo, Japan. As a control, a fresh preparation of the same trehalose-releasing enzyme was allowed to act on maltotriose, maltotetraose, maltopentaose, maltohexaose or maltoheptaose, and the resultant each reaction mixture was analyzed for saccharide composition on HPLC.

glucoamylase = experiment: Enzymatic hydrolysis by glucoamylase; type: biochemical
Procedure: Fifty mg aliquots of non-reducing saccharide preparations P I, P II, P III, P IV and P V in Experiment 4 were respectively dissolved in one ml of 50 mM acetate buffer (pH 4.5), admixed with one unit of glucoamylase commercialized by Seikagaku-Kogyo Co., Ltd., Tokyo, Japan, to effect enzymatic hydrolysis at 40° C. for 6 hours. HPLC analysis only detected glucose and trehalose in all resultant mixtures. The percentages and the molecular ratios of glucose to trehalose in each saccharide are in Table 5.

[7] = one unit, pH 6.9, 37°C., 18 hours
[8] = one unit glucoamylase, pH 4.5, 40°C., 6 hours

SMILES: OC[C@H]1O[C@H](O[C@H]2[C@H](O)[C@@H](O)C(O)O[C@@H]2CO)[C@H](O)[C@@H](O)[C@@H]1O (mixture of isomers) [Maltose]
Formation of saccharide from substrate [1]: no saccharide is formed
Percentage of remaining substrate on HPLC [1]: 100.0%
Coloration degree (480 nm) [2]: 0.926

SMILES: OC[C@H]1OC(O)[C@H](O)[C@@H](O)[C@@H]1O (stereo partly drawn) [Glucose]
Formation of saccharide from substrate [1]: no saccharide is formed
Percentage of remaining substrate on HPLC [1]: 100.0%
Coloration degree (480 nm) [2]: 1.671

SMILES: OC[C@H]1O[C@H](O[C@H]2[C@H](O)[C@@H](O)[C@@H](O[C@H]3[C@H](O)[C@@H](O)[C@@H](O[C@H]4[C@H](O)[C@@H](O)[C@@H](O[C@H]5[C@H](O)[C@@H](O)[C@@H](O[C@H]6[C@H](O)[C@@H](O)C(O)O[C@@H]6CO)O[C@@H]5CO)O[C@@H]4CO)O[C@@H]3CO)O[C@@H]2CO)[C@H](O)[C@@H](O)[C@@H]1O (stereo partly drawn) [Maltohexaose]
Percentage of newly formed product (P I to P V) on HPLC [1]: 93.5%
Percentage of remaining substrate on HPLC [1]: 6.5%
Coloration degree (480 nm) [2]: 0.318

SMILES: OC[C@H]1O[C@H](O[C@H]2O[C@H](CO)[C@@H](O[C@H]3O[C@H](CO)[C@@H](O)[C@H](O)[C@H]3O)[C@H](O)[C@H]2O)[C@H](O)[C@@H](O)[C@@H]1O [P I, α-glucosyltrehalose]
Hydrolysis by β-amylase (β-amylase): not hydrolyzed
Saccharide composition of hydrolysate by α-glucosidase: Glucose (α-glucosidase): 36.5%
Saccharide composition of hydrolysate by α-glucosidase: Other saccharides (α-glucosidase): 0.5%
Saccharide composition of hydrolysate by α-glucosidase: Trehalose (α-glucosidase): 63.0%
DE (reducing power) [3]: 0.83
LD50 [4]: ≥ 50000 mg/kg
Mortality (mice): no mouse died
Saccharide composition of hydrolysate by rat intestinal acetone powder: Glucose [5]: 37.2%
Saccharide composition of hydrolysate by rat intestinal acetone powder: Other saccharides [5]: 0.4%
Saccharide composition of hydrolysate by rat intestinal acetone powder: Trehalose [5]: 62.4%
Hydrolysis by α-amylase (α-amylase): not substantially hydrolyzed
Saccharide composition of hydrolysate by α-amylase: G1 (glucose) (α-amylase; [7]): 0
Saccharide composition of hydrolysate by α-amylase: G2 (maltose) (α-amylase; [7]): 0.4
Saccharide composition of hydrolysate by α-amylase: G3 (maltotriose) (α-amylase; [7]): 2.3
Saccharide composition of hydrolysate by α-amylase: P I (α-amylase; [7]): 97.3
Saccharide composition of hydrolysate by α-amylase: P II (α-amylase; [7]): 0
Percentage of reducing saccharide released (glucose, maltose, maltotriose, maltotetraose or maltopentaose) [6]: 6.5%
Percentage of trehalose released [6]: 17.5%
Coloration degree relative to corresponding material maltooligosaccharides [2]: 3-6%
Coloration degree (480 nm) [2]: 0.027
Hydrolysis by glucoamylase (glucoamylase): hydrolyzed into one glucose molecule and one trehalose molecule
Glucose (glucoamylase; [8]): 36.2%
Molecular ratio (Glucose/Trehalose) (glucoamylase; [8]): 1.07
Trehalose (glucoamylase; [8]): 63.8%

Further lines, results first:

Percentage of newly formed product (P I to P V) on HPLC [1]: 93.4%
Percentage of remaining substrate on HPLC [1]: 6.7%
Coloration degree (480 nm) [2]: 0.271
SMILES: OC[C@H]1O[C@H](O[C@H]2[C@H](O)[C@@H](O)[C@@H](O[C@H]3[C@H](O)[C@@H](O)[C@@H](O[C@H]4[C@H](O)[C@@H](O)[C@@H](O[C@H]5[C@H](O)[C@@H](O)[C@@H](O[C@H]6[C@H](O)[C@@H](O)[C@@H](O[C@H]7[C@H](O)[C@@H](O)C(O)O[C@@H]7CO)O[C@@H]6CO)O[C@@H]5CO)O[C@@H]4CO)O[C@@H]3CO)O[C@@H]2CO)[C@H](O)[C@@H](O)[C@@H]1O (stereo partly drawn) [Maltoheptaose]

Percentage of newly formed product (P I to P V) on HPLC [1]: 92.7%
Percentage of remaining substrate on HPLC [1]: 7.3%
Coloration degree (480 nm) [2]: 0.369
SMILES: OC[C@H]1O[C@H](O[C@H]2[C@H](O)[C@@H](O)[C@@H](O[C@H]3[C@H](O)[C@@H](O)[C@@H](O[C@H]4[C@H](O)[C@@H](O)[C@@H](O[C@H]5[C@H](O)[C@@H](O)C(O)O[C@@H]5CO)O[C@@H]4CO)O[C@@H]3CO)O[C@@H]2CO)[C@H](O)[C@@H](O)[C@@H]1O (stereo partly drawn) [Maltopentaose]

Percentage of newly formed product (P I to P V) on HPLC [1]: 85.6%
Percentage of remaining substrate on HPLC [1]: 14.4%
Coloration degree (480 nm) [2]: 0.475
SMILES: OC[C@H]1O[C@H](O[C@H]2[C@H](O)[C@@H](O)[C@@H](O[C@H]3[C@H](O)[C@@H](O)[C@@H](O[C@H]4[C@H](O)[C@@H](O)C(O)O[C@@H]4CO)O[C@@H]3CO)O[C@@H]2CO)[C@H](O)[C@@H](O)[C@@H]1O (stereo partly drawn) [Maltotetraose]

Percentage of newly formed product (P I to P V) on HPLC [1]: 35.0%
Percentage of remaining substrate on HPLC [1]: 65.0%
Coloration degree (480 nm) [2]: 0.623
SMILES: OC[C@H]1O[C@H](O[C@H]2[C@H](O)[C@@H](O)[C@@H](O[C@H]3[C@H](O)[C@@H](O)C(O)O[C@@H]3CO)O[C@@H]2CO)[C@H](O)[C@@H](O)[C@@H]1O (stereo partly drawn) [Maltotriose]
